Measurements published in the NIST ThermoML archive (doi:10.1021/acs.jced.5b00549).

Assay: mn = molality of the nth substance listed, in mol/kg
Settings: 100 kPa, Liquid; for viscosity: Capillary tube (Ostwald / Ubbelohde) method; for speed of sound: Frequency=3 MHz, Sing-around technique in a fixed-path interferometer; for mass density: Vibrating tube method

NC(=O)CC[C@H](N)C(=O)O [L-glutamine] + O
Settings	mass density [kg/m3]	speed of sound [m/s]	viscosity [mPa·s]
293.15 K, m1 = 0.02	999.262	1484	1.012
293.15 K, m1 = 0.04	1000.32	1485.3	1.017
293.15 K, m1 = 0.06	1001.38	1486.9	1.022
293.15 K, m1 = 0.08	1002.44	1488.4	1.027
293.15 K, m1 = 0.1	1003.5	1490.1	1.031
293.15 K, m1 = 0.12	1004.57	1491.8	1.035
293.15 K, m1 = 0.14	1005.63	1493.5	1.039
293.15 K, m1 = 0.16	1006.69	1495.3	1.043
293.15 K, m1 = 0.18	1007.76	1497.2	1.047
293.15 K, m1 = 0.2	1008.82	1499	1.051
298.15 K, m1 = 0.02	998.094	1498	0.8984
298.15 K, m1 = 0.04	999.147	1499.3	0.9028
298.15 K, m1 = 0.06	1000.2	1500.8	0.9067
298.15 K, m1 = 0.08	1001.26	1502.3	0.9104
298.15 K, m1 = 0.1	1002.32	1503.9	0.9143
298.15 K, m1 = 0.12	1003.37	1505.6	0.9175
298.15 K, m1 = 0.14	1004.43	1507.3	0.9212
298.15 K, m1 = 0.16	1005.49	1509	0.9246
298.15 K, m1 = 0.18	1006.56	1510.7	0.9277
298.15 K, m1 = 0.2	1007.62	1512.6	0.9308
303.15 K, m1 = 0.02	996.679	1510.3	0.8039
303.15 K, m1 = 0.04	997.722	1511.6	0.8076
303.15 K, m1 = 0.06	998.771	1513	0.8109
303.15 K, m1 = 0.08	999.819	1514.5	0.8141
303.15 K, m1 = 0.1	1000.87	1516	0.817
303.15 K, m1 = 0.12	1001.92	1517.7	0.82
303.15 K, m1 = 0.14	1002.97	1519.4	0.8224
303.15 K, m1 = 0.16	1004.02	1521	0.8254
303.15 K, m1 = 0.18	1005.09	1522.7	0.8283
303.15 K, m1 = 0.2	1006.14	1524.5	0.8316
308.15 K, m1 = 0.02	995.051	1520.9	0.7243
308.15 K, m1 = 0.04	996.088	1522.2	0.7275
308.15 K, m1 = 0.06	997.129	1523.6	0.7302
308.15 K, m1 = 0.08	998.171	1525	0.7329
308.15 K, m1 = 0.1	999.218	1526.5	0.7352
308.15 K, m1 = 0.12	1000.26	1528.1	0.7379
308.15 K, m1 = 0.14	1001.31	1529.8	0.7405
308.15 K, m1 = 0.16	1002.36	1531.4	0.7425
308.15 K, m1 = 0.18	1003.41	1533.1	0.7448
308.15 K, m1 = 0.2	1004.48	1534.8	0.7469
313.15 K, m1 = 0.02	993.226	1530	0.6569
313.15 K, m1 = 0.04	994.257	1531.3	0.6595
313.15 K, m1 = 0.06	995.294	1532.6	0.6621
313.15 K, m1 = 0.08	996.332	1534	0.6638
313.15 K, m1 = 0.1	997.372	1535.5	0.666
313.15 K, m1 = 0.12	998.413	1537.1	0.6682
313.15 K, m1 = 0.14	999.457	1538.6	0.6702
313.15 K, m1 = 0.16	1000.5	1540.3	0.6716
313.15 K, m1 = 0.18	1001.56	1542	0.674
313.15 K, m1 = 0.2	1002.6	1543.7	0.6759

N[C@@H](Cc1c[nH]cn1)C(=O)O [L-histidine] + O
Settings	mass density [kg/m3]	speed of sound [m/s]	viscosity [mPa·s]
293.15 K, m1 = 0.02	999.369	1484.4	1.013
293.15 K, m1 = 0.04	1000.53	1486.2	1.019
293.15 K, m1 = 0.06	1001.7	1488	1.025
293.15 K, m1 = 0.08	1002.86	1489.7	1.03
293.15 K, m1 = 0.1	1004.03	1491.5	1.035
293.15 K, m1 = 0.12	1005.19	1493.2	1.04
293.15 K, m1 = 0.14	1006.36	1494.9	1.045
293.15 K, m1 = 0.16	1007.53	1496.6	1.049
293.15 K, m1 = 0.18	1008.71	1498.2	1.054
293.15 K, m1 = 0.2	1009.89	1499.9	1.058
298.15 K, m1 = 0.02	998.178	1498.5	0.8996
298.15 K, m1 = 0.04	999.317	1500.2	0.9048
298.15 K, m1 = 0.06	1000.46	1501.9	0.9091
298.15 K, m1 = 0.08	1001.59	1503.7	0.9138
298.15 K, m1 = 0.1	1002.73	1505.3	0.9175
298.15 K, m1 = 0.12	1003.87	1507	0.9222
298.15 K, m1 = 0.14	1005.02	1508.7	0.9259
298.15 K, m1 = 0.16	1006.16	1510.3	0.9293
298.15 K, m1 = 0.18	1007.32	1512	0.9336
298.15 K, m1 = 0.2	1008.47	1513.6	0.9374
303.15 K, m1 = 0.02	996.746	1510.7	0.8051
303.15 K, m1 = 0.04	997.854	1512.4	0.8093
303.15 K, m1 = 0.06	998.962	1514.1	0.813
303.15 K, m1 = 0.08	1000.07	1515.7	0.8165
303.15 K, m1 = 0.1	1001.18	1517.3	0.8198
303.15 K, m1 = 0.12	1002.29	1519	0.8233
303.15 K, m1 = 0.14	1003.39	1520.5	0.8265
303.15 K, m1 = 0.16	1004.5	1522.2	0.8301
303.15 K, m1 = 0.18	1005.61	1523.7	0.8339
303.15 K, m1 = 0.2	1006.72	1525.3	0.8372
308.15 K, m1 = 0.02	995.102	1521.3	0.7253
308.15 K, m1 = 0.04	996.183	1523	0.7289
308.15 K, m1 = 0.06	997.262	1524.6	0.732
308.15 K, m1 = 0.08	998.34	1526.2	0.7348
308.15 K, m1 = 0.1	999.416	1527.8	0.7378
308.15 K, m1 = 0.12	1000.49	1529.4	0.7407
308.15 K, m1 = 0.14	1001.57	1531	0.7435
308.15 K, m1 = 0.16	1002.64	1532.5	0.7466
308.15 K, m1 = 0.18	1003.72	1534.1	0.7492
308.15 K, m1 = 0.2	1004.78	1535.6	0.7524
313.15 K, m1 = 0.02	993.257	1530.4	0.6578
313.15 K, m1 = 0.04	994.314	1532	0.6608
313.15 K, m1 = 0.06	995.368	1533.5	0.6633
313.15 K, m1 = 0.08	996.42	1535.1	0.666
313.15 K, m1 = 0.1	997.47	1536.7	0.6682
313.15 K, m1 = 0.12	998.515	1538.2	0.6709
313.15 K, m1 = 0.14	999.558	1539.7	0.6734
313.15 K, m1 = 0.16	1000.6	1541.2	0.6756
313.15 K, m1 = 0.18	1001.63	1542.7	0.6783
313.15 K, m1 = 0.2	1002.67	1544.2	0.681

CN(C)C(=N)NC(=N)N.Cl [N,N-dimethylimidodicarbonimidic diamide hydrochloride] + O
Settings	mass density, m1 = 0.01 [kg/m3]	mass density, m1 = 0.07 [kg/m3]	mass density, m1 = 0.13 [kg/m3]	speed of sound, m1 = 0.01 [m/s]	speed of sound, m1 = 0.07 [m/s]	speed of sound, m1 = 0.13 [m/s]	viscosity, m1 = 0.01 [mPa·s]	viscosity, m1 = 0.07 [mPa·s]	viscosity, m1 = 0.13 [mPa·s]
293.15 K	998.57	1000.83	1003.13	1483.3	1490.2	1496.3	1.01	1.015	1.019
298.15 K	997.402	999.633	1001.9	1497.3	1503.9	1509.7	0.8925	0.899	0.9052
303.15 K	995.993	998.2	1000.45	1509.7	1515.8	1521.3	0.8013	0.8074	0.8126
308.15 K	994.369	996.524	998.785	1520.3	1526	1531.3	0.7245	0.7285	0.7333
313.15 K	992.542	994.71	996.926	1529.4	1534.8	1539.8	0.6566	0.6606	0.6662
